Assay results published in ChEMBL document CHEMBL1201862, “PubChem BioAssay data set” (2004).
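These data come from cells grown in 96-well plates and exposed to compound for 48 hours at five concentrations. The concentration for 50% growth inhibition is given as GI50.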 The source made the active and inactive calls. Cut-off read from the data, not from the text of the source: active = GI50 up to about 1.1 µM and inactive = higher.

Legend:
Experiment in all cases: inhibition of tumour cell growth, NCI panel, 48 h
SK-MEL-5 = tested on: SK-MEL-5
A498 = tested on: A498
DMS-114 = tested on: DMS-114
A549 = tested on: A549
UACC-62 = tested on: UACC-62
COLO 205 = tested on: COLO 205
CAKI-1 = tested on: CAKI-1
KM12 = tested on: KM12
SF-295 = tested on: SF-295
TK-10 = tested on: TK-10
SW-620 = tested on: SW-620
SR = tested on: SR
HCC 2998 = tested on: HCC 2998
OVCAR-4 = tested on: OVCAR-4
BT-549 = tested on: BT-549
Hs-578T = tested on: Hs-578T
PC-3 = tested on: PC-3
MCF7 = tested on: MCF7
NCI/ADR-RES = tested on: NCI/ADR-RES
MDA-MB-435 = tested on: MDA-MB-435

Measured: GI50

CN(C(=O)C12C3C4C1C1C4(C(=O)C45C6C7C4C4C5C6C74C)C3C12C)C(C)(C)C (configuration not stated)
inactive: SK-MEL-5 31.6 µM | A498 55.3 µM | DMS-114 39.8 µM | A549 52.7 µM | UACC-62 48.3 µM | COLO 205 35.4 µM | CAKI-1 > 100 µM | KM12 78.7 µM | SF-295 > 100 µM | TK-10 > 100 µM | SW-620 > 100 µM | SR 29.2 µM | HCC 2998 91 µM

COC(=O)C1CC2C=CC=CC(=O)C2(C)C1 (configuration not stated)
inactive: SK-MEL-5 51.1 µM | A498 36.2 µM | DMS-114 40.4 µM | A549 > 100 µM | OVCAR-4 83.2 µM | UACC-62 39.9 µM | COLO 205 76.9 µM | CAKI-1 > 100 µM | KM12 45.7 µM | SF-295 53.6 µM | TK-10 > 100 µM | SW-620 27.2 µM | SR 27.8 µM

O=C(c1ccccc1)c1ccc2nc3n(c2c1)C(c1c(Cl)cccc1Cl)SC3 (configuration not stated)
inactive: SK-MEL-5 3.24 µM | A498 15.7 µM | A549 4.49 µM | BT-549 3.54 µM | Hs-578T 3.67 µM | PC-3 5.41 µM | OVCAR-4 7.45 µM | UACC-62 4.06 µM | MCF7 4.09 µM | COLO 205 4.88 µM | NCI/ADR-RES 2.13 µM | CAKI-1 3.44 µM | KM12 2.87 µM | SF-295 3.37 µM | MDA-MB-435 1.77 µM | TK-10 25.2 µM | SW-620 3.53 µM | SR 1.43 µM | HCC 2998 7.05 µM

COC(=O)NN1C(C)=C(C(=O)OC)C2(CCOC2=O)C1(C)O (configuration not stated)
inactive: A498 > 100 µM | DMS-114 > 100 µM | A549 > 100 µM | OVCAR-4 > 100 µM | UACC-62 > 100 µM | COLO 205 > 100 µM | CAKI-1 > 100 µM | KM12 > 100 µM | SF-295 > 100 µM | TK-10 > 100 µM | SW-620 > 100 µM | HCC 2998 > 100 µM

CC(C)N(C(=O)C12C3C4C1C1C2C3C41C(O)C(C)(C)C)C(C)C (configuration not stated)
inactive: SK-MEL-5 > 50 µM | A498 > 50 µM | DMS-114 > 50 µM | A549 > 50 µM | UACC-62 > 50 µM | COLO 205 > 50 µM | CAKI-1 > 50 µM | SF-295 > 50 µM | SW-620 > 50 µM | SR > 50 µM | HCC 2998 > 50 µM

CC(C)(CN1CCCCC1)C(=O)/C=C/c1ccc(Cl)c(Cl)c1
inactive: SK-MEL-5 2.07 µM | A498 1.67 µM | DMS-114 1.56 µM | A549 1.98 µM | OVCAR-4 1.51 µM | UACC-62 1.76 µM | COLO 205 1.5 µM | KM12 1.71 µM | SF-295 2.45 µM | TK-10 1.48 µM | SW-620 1.37 µM | SR 1.49 µM | HCC 2998 1.74 µM

Cc1cc2c(c(C#N)c1C)NC(=O)C(CC(=O)O)C2=O (configuration not stated)
inactive: SK-MEL-5 > 100 µM | A498 > 100 µM | DMS-114 > 100 µM | A549 > 100 µM | OVCAR-4 > 100 µM | UACC-62 > 100 µM | COLO 205 > 100 µM | CAKI-1 > 100 µM | KM12 > 100 µM | SF-295 > 100 µM | TK-10 > 100 µM | SW-620 > 100 µM | HCC 2998 > 100 µM

O=C(Cn1cc(I)c(C(=O)NCC(O)CO)n1)NCC(O)CO (configuration not stated)
inactive: A498 > 100 µM | DMS-114 > 100 µM | A549 > 100 µM | OVCAR-4 > 100 µM | UACC-62 > 100 µM | COLO 205 > 100 µM | KM12 > 100 µM | SF-295 > 100 µM | TK-10 > 100 µM | SW-620 > 100 µM | HCC 2998 > 100 µM

CC(C)(C)c1cc(C(=O)O)c(C(c2ccccc2)c2ccccc2C(=O)O)c(C(=O)O)c1 (configuration not stated)
inactive: DMS-114 > 100 µM | A549 > 100 µM | OVCAR-4 19.9 µM | UACC-62 > 100 µM | COLO 205 33.8 µM | CAKI-1 > 100 µM | KM12 > 100 µM | SF-295 > 100 µM | TK-10 > 100 µM | SW-620 > 100 µM | SR > 100 µM

CC1(C)O[C@@H](CC/C=C/CO)[C@H](CC/C=C/CO)O1
inactive: SK-MEL-5 > 100 µM | A498 > 100 µM | DMS-114 > 100 µM | A549 > 100 µM | OVCAR-4 > 100 µM | COLO 205 > 100 µM | CAKI-1 > 100 µM | KM12 > 100 µM | SF-295 > 100 µM | TK-10 > 100 µM | SW-620 > 100 µM | SR 74.6 µM | HCC 2998 > 100 µM

CC(C)NCCNC(=O)c1ccccc1Nc1c(Cl)cccc1Cl
inactive: SK-MEL-5 5.04 µM | DMS-114 10.9 µM | A549 17.3 µM | OVCAR-4 14.4 µM | UACC-62 15.8 µM | COLO 205 11.6 µM | KM12 16.9 µM | SF-295 15.2 µM | TK-10 11.8 µM | SW-620 15.5 µM | SR 9.06 µM | HCC 2998 2.84 µM

O=C(/C=C\c1cccc2ccccc12)c1ccc(F)cc1
inactive: SK-MEL-5 17.8 µM | A498 29.7 µM | DMS-114 14.4 µM | A549 26.8 µM | OVCAR-4 20.1 µM | UACC-62 13.9 µM | COLO 205 19 µM | CAKI-1 17.3 µM | KM12 15 µM | SF-295 19.3 µM | TK-10 15.3 µM | SW-620 7.52 µM | HCC 2998 19.5 µM

CCCCCCCCCCCCCC(=O)CC(=O)c1c(O)cccc1O
inactive: SK-MEL-5 > 100 µM | A498 > 100 µM | DMS-114 21.5 µM | A549 51.1 µM | OVCAR-4 33.4 µM | UACC-62 47.3 µM | COLO 205 22.5 µM | CAKI-1 34 µM | KM12 41.1 µM | SF-295 42.4 µM | TK-10 51.6 µM | SW-620 23.6 µM | HCC 2998 38.2 µM

O=C(O)CCN(CCCN(CCC(=O)O)CCC(=O)O)CCC(=O)O
inactive: SK-MEL-5 > 100 µM | A498 > 100 µM | DMS-114 > 100 µM | A549 > 100 µM | OVCAR-4 > 100 µM | UACC-62 > 100 µM | COLO 205 > 100 µM | CAKI-1 > 100 µM | KM12 > 100 µM | SF-295 > 100 µM | TK-10 > 100 µM | SW-620 > 100 µM | HCC 2998 > 100 µM

C=C1C(=O)c2cc3c(cc2C(c2cc(OC)c(OC)c(OC)c2)[C@@H]1C(=O)O)OCO3 (some centres not stated)
inactive: SK-MEL-5 50.7 µM | A498 32.6 µM | DMS-114 36.7 µM | A549 80.4 µM | UACC-62 27 µM | COLO 205 39.3 µM | CAKI-1 54.2 µM | KM12 44.5 µM | SF-295 38.3 µM | TK-10 > 100 µM | SW-620 53.2 µM | HCC 2998 > 100 µM
